Results published in patent US20250333418A1, “PURINE COMPOUNDS, COMPOSITIONS COMPRISING THEM AND USES THEREOF” (Novo Nordisk A/S, priority 2022, published 2025).

Legend:
[1] = biological target: T1, human CB1 receptor (Homo sapiens, UniProt P21554); test: bioSensAll β-arrestin2 plasma membrane translocation (+GRK2) BRET biosensor assay in HEK293 cells transfected with hCB1; test compound added before EC75-80 of agonist CP55,940 (100 nM); type: cell-based; conditions: βArrestin2 (+GRK2) BRET biosensor, vs CP55,940 100 nM (EC75-80), read-out: CB1 wt βarr2 IC50
T1 construct: expressed in transfected cells; host or cells: HEK293
How it was run: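 Antagonist mode: compound at 12 concentrations up to 600 nM, then 100 nM CP55,940 3–5 min later, on hCB1-transfected HEK293 cells carrying the β-arrestin2 plasma-membrane biosensor plus GRK2. After overnight 37 °C incubation, 515/400 nm BRET ratio measured with 2 µM methoxy e-CTZ and standardized against positive/negative controls.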

[2] = biological target: T1, human CB1 receptor; test: bioSensAll GAPL-Gi2 BRET biosensor assay in HEK293 cells transfected with hCB1; test compound added before EC75-80 of agonist CP55,940 (0.1 nM); type: cell-based; conditions: vs CP55,940 0.1 nM (EC75-80), read-out: CB1 wt Gi2 IC50
How it was run: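 Test compounds at 12 doses up to 600 nM preceded a 0.1 nM CP55,940 challenge in hCB1/GAPL-Gi2 HEK293 cells. After overnight 37° C incubation, methoxy e-coelenterazine (2 µM final) was added and the 515/400 nm BRET ratio normalized to positive and negative controls.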

T1 sequence (P21554 whole entry): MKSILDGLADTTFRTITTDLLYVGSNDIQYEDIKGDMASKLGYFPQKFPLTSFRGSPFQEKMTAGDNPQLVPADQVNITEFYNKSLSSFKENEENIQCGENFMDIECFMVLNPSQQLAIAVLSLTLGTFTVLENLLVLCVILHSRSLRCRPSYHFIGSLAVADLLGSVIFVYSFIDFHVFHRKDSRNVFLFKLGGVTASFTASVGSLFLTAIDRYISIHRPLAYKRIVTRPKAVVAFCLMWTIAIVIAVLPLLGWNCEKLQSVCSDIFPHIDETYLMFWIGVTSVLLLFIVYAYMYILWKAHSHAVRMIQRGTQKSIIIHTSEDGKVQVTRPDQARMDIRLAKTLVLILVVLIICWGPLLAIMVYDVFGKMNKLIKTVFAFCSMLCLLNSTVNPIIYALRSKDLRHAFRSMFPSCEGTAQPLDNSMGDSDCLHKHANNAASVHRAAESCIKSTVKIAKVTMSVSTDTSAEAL

SMILES | IC50 [1] | IC50 [2]
CN(C)c1ccc(-c2nc3c(N4CCC(C)(C(N)=O)CC4)nc(OCC(C)(C)O)nc3n2-c2ccc(Cl)cc2)cn1 [Compound 116, 1-[9-(4-chlorophenyl)-8-[6-(dimethylamino)-3-pyridyl]-2-(2-hydroxy-2-methyl-propoxy)purin-6-yl]-4-methyl-piperidine-4-carboxamide] | > 5000 nM | 68.8 nM
CC(C)Oc1nc(OCC(C)(C)O)nc2c1nc(-c1ccccc1Cl)n2-c1ccc(Cl)cc1 [Compound 86] | 9.49 nM | 1.38 nM
CN1CCN(c2nc(N(C)CCO)nc3c2nc(-c2ccccc2Cl)n3-c2ccc(Cl)cc2)CC1 [Compound 168] | 12 nM | 1.93 nM
C[C@@H](O)CNc1nc(N2CCC(C)(C(N)=O)CC2)c2nc(-c3ccccc3Cl)n(-c3ccc(Cl)cc3)c2n1 [Compound 83, 1-[8-(2-chlorophenyl)-9-(4-chlorophenyl)-2-[[(2R)-2-hydroxypropyl]amino]purin-6-yl]-4-methyl-piperidine-4-carboxamide] | 6.26 nM | 1.16 nM
CCN(CCO)c1nc(N2CCC(C)(C(N)=O)CC2)c2nc(-c3ccccc3Cl)n(-c3ccc(Cl)cc3)c2n1 [Compound 90, 1-[8-(2-chlorophenyl)-9-(4-chlorophenyl)-2-[ethyl(2-hydroxyethyl)amino]purin-6-yl]-4-methyl-piperidine-4-carboxamide] | 1.36 nM | 0.52 nM
OC[C@@H]1CCCN1c1nc(N2CCC(C(F)(F)F)CC2)c2nc(-c3ccccc3Cl)n(-c3ccc(Cl)cc3)c2n1 [Compound 35, [(2S)-1-[8-(2-chlorophenyl)-9-(4-chlorophenyl)-6-[4-(trifluoromethyl)-1-piperidyl]purin-2-yl]pyrrolidin-2-yl]methanol] | 3.3 nM | 0.687 nM
CCNC1(C(N)=O)CCN(c2nc(OCCO)nc3c2nc(-c2ccccc2Cl)n3-c2ccc(Cl)cc2)CC1 [Compound 142] | 2.6 nM | 0.892 nM
Cc1ccn(-c2nc(N3CCC(C(F)(F)F)CC3)c3nc(-c4ccccc4Cl)n(-c4ccc(Cl)cc4)c3n2)n1 [Compound 22, 8-(2-chlorophenyl)-9-(4-chlorophenyl)-2-(3-methylpyrazol-1-yl)-6-[4-(trifluoromethyl)-1-piperidyl]purine] | 11.3 nM | 1.33 nM
CC1(C(N)=O)CCN(c2nc(N3CC[C@@H](O)C3)nc3c2nc(-c2ccccc2Cl)n3-c2ccc(Cl)cc2)CC1 [Compound 93, 1-[8-(2-chlorophenyl)-9-(4-chlorophenyl)-2-[(3R)-3-hydroxypyrrolidin-1-yl]purin-6-yl]-4-methyl-piperidine-4-carboxamide] | 1.43 nM | 0.606 nM
CCOC1(C(N)=O)CCN(c2nc(NCC(C)(C)O)nc3c2nc(-c2ccc(C#N)nc2)n3-c2ccc(Cl)cc2)CC1 [Compound 132, 1-[9-(4-chlorophenyl)-8-(6-cyano-3-pyridyl)-2-[(2-hydroxy-2-methyl-propyl)amino]purin-6-yl]-4-ethoxy-piperidine-4-carboxamide] | > 5000 nM | 17.8 nM
CN(CCO)c1nc(N2CCC3(CC2)NC(=O)NC3=O)c2nc(-c3ccccc3Cl)n(-c3ccc(Cl)cc3)c2n1 [Compound 190] | 23.7 nM | 2.66 nM
CCNC1(C(N)=O)CCN(c2nc(N)nc3c2nc(-c2ccccc2Cl)n3-c2ccc(Cl)cc2)CC1 [Compound 149] | > 5000 nM | 8.93 nM
CN(CC(C)(C)O)c1nc(N2CCC(C(F)(F)F)CC2)c2nc(-c3ccccc3Cl)n(-c3ccc(Cl)cc3)c2n1 [Compound 38, 1-[[8-(2-chlorophenyl)-9-(4-chlorophenyl)-6-[4-(trifluoromethyl)-1-piperidyl]purin-2-yl]-methyl-amino]-2-methyl-propan-2-ol] | 6.48 nM | 1.67 nM
CC(C)(O)COc1nc(N2CCNCC(F)(F)C2)c2nc(-c3ccccc3Cl)n(-c3ccc(Cl)cc3)c2n1 [Compound 221] | 30.6 nM | 4.04 nM
CCOC1(C(N)=O)CCN(c2nc(N(C)CCO)nc3c2nc(-c2ccccc2Cl)n3-c2ccc(Cl)cc2)CC1 [Compound 182] | 0.661 nM | 0.175 nM
CN(CCO)c1nc(N2CCC(F)(F)CC2)c2nc(-c3ccccc3Cl)n(-c3ccc(Cl)cc3)c2n1 [Compound 184] | 0.889 nM | 0.24 nM
CC(C)n1cncc1-c1nc2c(N3CCC(C)(C(N)=O)CC3)nc(N(C)CCO)nc2n1-c1ccc(Cl)cc1 [Compound 59, 1-[9-(4-chlorophenyl)-2-[2-hydroxyethyl(methyl)amino]-8-(3-isopropylimidazol-4-yl)purin-6-yl]-4-methyl-piperidine-4-carboxamide] | > 5000 nM | > 5000 nM

SMILES | IC50 [1] | IC50 [2]
FC(F)(F)C1CCN(c2nc(-c3cc[nH]n3)nc3c2nc(-c2ccccc2Cl)n3-c2ccc(Cl)cc2)CC1 [Compound 39] | 16.4 nM | 3.29 nM
CC(C)(O)COc1nc(NCC(N)=O)c2nc(-c3ccccc3Cl)n(-c3ccc(Cl)cc3)c2n1 [Compound 100] | > 5000 nM | > 5000 nM
CN(CCO)c1nc(N2CCC3(CCNC3=O)CC2)c2nc(-c3ccccc3Cl)n(-c3ccc(Cl)cc3)c2n1 [Compound 186] | 4.92 nM | 0.407 nM
COCCOc1nc(N2CCC(C)(C(N)=O)CC2)c2nc(-c3ccccc3Cl)n(-c3ccc(Cl)cc3)c2n1 [Compound 10, 1-[8-(2-chlorophenyl)-9-(4-chlorophenyl)-2-(2-methoxyethoxy)purin-6-yl]-4-methyl-piperidine-4-carboxamide] | 6.8 nM | 1.47 nM
FC(F)(F)C1CCN(c2nc(OC3CCCOC3)nc3c2nc(-c2ccccc2Cl)n3-c2ccc(Cl)cc2)CC1 (stereo not drawn) [Compound 33, 8-(2-chlorophenyl)-9-(4-chlorophenyl)-2-tetrahydropyran-3-yloxy-6-[4-(trifluoromethyl)-1-piperidyl]purine] | 4.98 nM | 1.42 nM
CN(CCO)c1nc(N2CCN(C(N)=O)CC2)c2nc(-c3ccccc3Cl)n(-c3ccc(Cl)cc3)c2n1 [Compound 157] | 6.04 nM | 0.938 nM
Cc1cc(C#N)ncc1-c1nc2c(N3CCC(C)(C(N)=O)CC3)nc(OCC(C)(C)O)nc2n1-c1ccc(Cl)cc1 [Compound 108, 1-[9-(4-chlorophenyl)-8-(6-cyano-4-methyl-3-pyridyl)-2-(2-hydroxy-2-methyl-propoxy)purin-6-yl]-4-methyl-piperidine-4-carboxamide] | 26.2 nM | 3.51 nM
CN(CC1(O)CC1)c1nc(N2CCC(C)(C(N)=O)CC2)c2nc(-c3ccccc3Cl)n(-c3ccc(Cl)cc3)c2n1 [Compound 41, 1-[8-(2-chlorophenyl)-9-(4-chlorophenyl)-2-[(1-hydroxycyclopropyl)methyl-methyl-amino]purin-6-yl]-4-methyl-piperidine-4-carboxamide] | 7.33 nM | 1.65 nM
OCCCOc1nc(N2CCC(C(F)(F)F)CC2)c2nc(-c3ccccc3Cl)n(-c3ccc(Cl)cc3)c2n1 [Compound 23, 3-[8-(2-chlorophenyl)-9-(4-chlorophenyl)-6-[4-(trifluoromethyl)-1-piperidyl]purin-2-yl]oxypropan-1-ol] | 4.36 nM | 0.846 nM
CC1(C(N)=O)CCN(c2nc(N3CCC[C@H]3CO)nc3c2nc(-c2ccc(C#N)cc2)n3-c2ccc(Cl)cc2)CC1 [Compound 36, 1-[9-(4-chlorophenyl)-8-(4-cyanophenyl)-2-[(2S)-2-(hydroxymethyl)pyrrolidin-1-yl]purin-6-yl]-4-methyl-piperidine-4-carboxamide] | 1.52 nM | 0.686 nM
CN(CCO)c1nc(NC2CCS(=O)(=O)CC2)c2nc(-c3ccccc3Cl)n(-c3ccc(Cl)cc3)c2n1 [Compound 167] | 4.39 nM | 0.421 nM
Cc1cnc(-c2nc3c(N4CCC(C)(C(N)=O)CC4)nc(N(C)CCO)nc3n2-c2ccc(Cl)cc2)n1C [Compound 115, 1-(9-(4-chlorophenyl)-8-(1,5-dimethyl-1H-imidazol-2-yl)-2-((2-hydroxyethyl)(methyl)amino)-9H-purin-6-yl)-4-methylpiperidine-4-carboxamide] | 93.6 nM | 17.8 nM
CC(O)COc1nc(N2CCC(C)(C(N)=O)CC2)c2nc(-c3ccccc3Cl)n(-c3ccc(Cl)cc3)c2n1 (single isomer, unassigned) [Compound 8, 1-[8-(2-chlorophenyl)-9-(4-chlorophenyl)-2-(2-hydroxypropoxy)purin-6-yl]-4-methyl-piperidine-4-carboxamide] | 2.74 nM | 0.922 nM
CCNC1(C(N)=O)CCN(c2nc(NC(C)=O)nc3c2nc(-c2ccccc2Cl)n3-c2ccc(Cl)cc2)CC1 [Compound 145] | 3 nM | 0.973 nM
Cc1ccncc1-c1nc2c(N3CCC(C)(C(N)=O)CC3)nc(OCC(C)(C)O)nc2n1-c1ccc(Cl)cc1 [Compound 105, 1-[9-(4-chlorophenyl)-2-(2-hydroxy-2-methyl-propoxy)-8-(4-methyl-3-pyridyl)purin-6-yl]-4-methyl-piperidine-4-carboxamide] | 760 nM | 17.8 nM
CC(C)OC1(C(N)=O)CCN(c2nc(N3CCC[C@H]3CO)nc3c2nc(-c2ccc(C#N)nc2)n3-c2ccc(Cl)cc2)CC1 [Compound 136, 1-[9-(4-chlorophenyl)-8-(6-cyano-3-pyridyl)-2-[(2S)-2-(hydroxymethyl)pyrrolidin-1-yl]purin-6-yl]-4-isopropoxy-piperidine-4-carboxamide] | 1.75 nM | 0.848 nM
